Patent US20080076750A1, “Azetidinone Derivatives and Methods of Use Thereof” (priority 2006, published 2008)
Where two headings read alike, the source gives them in different places. Each block holds one molecule with its values, some of them ahead of it.

Experiments:
TRPV1 [1] = molecular target: T1, TRPV1 (Homo sapiens, UniProt Q8NER1); test: TRPV1 Screening Assay (FLIPR); format: cell-based; conditions: HEK293-TetOFF-TRPV1, capsaicin (50 nM final), read-out: VR1 flipr CAPSAICIN IC50
T1 construct: expressed in transfected cells; host or cells: HEK293-Tet-OFF
Excerpt: • 1) Cell line: HEK293-Tet^OFF-TRPV1 • 2) Media: MEM (Invitrogen) • 3) 10% Tet-FBS (Clontech #8630-1) • 4) Fungizone (Gibco #15290-018 (100×)) • 5) Penn/Strep (Gibco #15140-122 (100×)) • 6) Geneticin (Gibco #10131-027 (100×)) • 7) Hygromycin (Clontech #8057-1) • 8) Doxycycline (Clontech #8634-1) • 9) Trypsin/EDTA (Gibco #25200-056) • 10) 100 mm cell culture plates (Falcon #3003) • 11) 96-well poly-D-lysine plates (Fisher #08-774-256) • 12) Hank's Balanced Salt Solution (HBSS) (GIBCO #14025-092) • 13) HEPES Buffer (GIBCO #15630-080) • 14) 30% BSA (Research Organics #1334A) • 15) Probenecid (Sigma P-8761) • 16) Fluo-4, AM (50 μg) (Molecular robes F-23917) • 17) Pluronic F-127 20% (Molecular Probes P-3000). • 18) capsazepine (Sigma C-191) • 19) capsaicin (Sigma M-2028) • 20) compound plates (NUNC #442587) • 21) black pipet tips 96-well FLIPR (Robbins Scientific 1043-24-0) • 22) Additional reagents available from Fisher: methanol, DMSO, NaOH Reagent Preparation: 1) Cells: HEK293-Tet^OFF-TRPV11
• and Doxycycline 2.5 μg/mL final (from a 1000× stock in PBS) • Cells must be fed and/or split every 2-3 days (to maintain transcriptional repression with Doxycycline). • Must be split no more than 1:5 (50-75% confluency) to maintain growth and viability. • Grown on regular tissue culture plates (e.g. Falcon 3003-100 mm) • SpliT-cells via Trypsin/EDTA: incubate with trypsin at room temperature no longer than 5 min (HEK293 cells have a tendency to ball up if over trypsinized). • Two days prior to assay, the cells are split into 96-well plates in cell media in the absence of doxycycline at a concentration of 40,000 cells/well in a volume of 200 μL, 2) FLIPR buffer is prepared fresh:
Add 5 mL of Probenecid Solution, prepared as follows: 710 mg of probenecid (Sigma P-8761) is solubilized in 5 mL of 1 N NaOH, 5 mL of above buffer s added for final volume of 10 mL (of which 5 mL goes back into FLIPR buffer)
Combine 42 μL of dye mixture with 11 mL of FLIPR buffer/96-well plate.
Stock solution of 0.1 M capsaicin is prepared in MeOH (50 mg+1.6 mL MeOH). Store 50 μL aliquots at −80° C.
For assay: • a) Dilute stock by adding 0.8 μL into 1 mL of MeOH (final=80 μM). • b) Add 50 μL of diluted stock to 20 mL of FLIPR buffer (final=0.2 μM) • c) Agonist solution is added 150 μL/well to 96-well plate. • d) Final agonist concentration on cells will be 50 nM. […] Laser is adjusted upwards for an average signal≧10,000/well and less than 10% variability. 7) Compound addition conditions are as follows: • FLIPR setup (dual sequence parameters): • Sequence 1: • First interval 1 sec/60 counts • Second interval 6 sec/50 counts • Fluid addition=50 μL • Pipettor=110 μL • Dispense Speed=30 μL/sec • Sequence 2: • Second interval 1 sec/60 counts • Second interval 6 sec/40 counts • Fluid addition=50 μL • Pipettor height=140 μL • Dispense Speed=50 μL/sec Data Analysis:
1) Data from both additions is reported as Max-Min for each well

TRPV1 [2] = molecular target: T1, TRPV1; test: TRPV1 Screening Assay (FLIPR); format: cell-based; conditions: HEK293-TetOFF-TRPV1, PMA, read-out: VR1 flipr PMA IC50
human Cav3.2 = molecular target: T2, human Cav3.2 (Homo sapiens, UniProt O95180); test: IonWorks Screen for hCaV3.2; format: cell-based; conditions: IonWorks HT, HEK cells expressing human Cav3.2, 10 minutes incubation, pulse 10; read-out: IW hCav3.2 IC50
T2 construct: expressed in transfected cells
Excerpt: Functional evaluation of voltage-gated ion channels can be used to determine potency and/or single concentration efficacy of the Azetidinone Derivatives. Two different methodologies can be used to measure ion currents: the Ionworks HT (Molecular Devices, Sunnyvale, Calif.) a moderate throughput voltage clamp screening platform that utilizes 96-well compound plates and conventional whole cell patch clamp for lower throughput, higher fidelity determinations.
HEK cells are transiently transfected and then selected for stable heterologous expression of different channel proteins of interest. Calcium channel cell lines expressed a resting potassium current, human Kir2.1, and the pore forming α-subunit of voltage-gated calcium channels. In the case of Cav2.1 cells the auxiliary subunit, β2α, is also expressed. Calcium channel lines that are used to generate the data will express either human Cav3.2, rat Cav3.2 or human Cav2.1. The human heart sodium channel, hNav1.5, are stably expressed in CHO cells.
Cell lines can be grown at 37° C. in humidified incubators, equilibrated with 95% air/5% CO2. CHO cells can be grown in Ham's F-12 medium. HEK cells can be grown in DMEM. All media are supplemented with 10% heat-inactivated fetal bovine serum, penicillin, streptomycin and appropriate selection antibiotics (zeocin, geneticin and/or hygromycin). Cells are passaged when 80% confluent or less.
IonWorks Screen for hCaV3.2
The extracellular buffer for experiments using this instrument contained the following (mM) (NaCl 125, HEPES 10, KCl 5.4, CaCl2 1.8, MgCl2 1.8, 0.2 BaCl2 pH 7.35). The IonWorks uses amphotericin to gain electrical access to the cell interior. The internal solution contained (mM concentrations): 130 K-gluconate, 20 KCl, 5 HEPES-KOH (pH 7.25), 2 CaCl2, 1 MgCl2. Amphotericin added at 5 mg in 65 mL when present (in 650 μL DMSO). All internal and external solutions for this experiment contain 1% DMSO. Cells were acutely trypsinized from a T-75 flask and resuspended in extracellular buffer at a density of 2×10^5 cells/mL.
Experiments were performed at room temperature. Transmembrane potential was held at −100 mV for 5 seconds prior to running the voltage protocol. During this time leak currents were measured during a step to −110 mV (200 milliseconds), T-type calcium currents were activated with a 250 millisecond step to −20 mV. This depolarization step was repeated for a total of 10 pulses with an interpulse interval of 1 second. Data were excluded if the following acceptance criteria were not met: total resistance for the pre-compound scan>65 MΩ, pre-compound current>250 pA, post compound total resistance>50 MΩ.
T-type currents were measured as the peak inward current minus the current at the end of the 250 msec step to −20 mV. After the recoding configuration was established there was a pre-compound measurement of current amplitude. Compound was added as a 3× solution containing 1% DMSO. After incubation with compound for 10 minutes currents were measured again. The current amplitude after compound addition was divided by the pre-compound current for pulse 10 to determine the fraction of current remaining after compound addition. For each compound, 8-point concentration-effect relationships were measured with ½ log serial dilutions.

human NPC1L1 = molecular target: T3, human NPC1L1 (Homo sapiens, UniProt Q9UHC9); test: NPC1L1 Binding Assay, human; conditions: HEK-293 cells expressing human NPC1L1; competition with 250 nM BODIPY-labeled glucuronidated ezetimibe, 4 h at 37° C.
T3 construct: expressed in transfected cells; host or cells: HEK-293 (geneticin selection)
T3 sequence (Q9UHC9 22-1359): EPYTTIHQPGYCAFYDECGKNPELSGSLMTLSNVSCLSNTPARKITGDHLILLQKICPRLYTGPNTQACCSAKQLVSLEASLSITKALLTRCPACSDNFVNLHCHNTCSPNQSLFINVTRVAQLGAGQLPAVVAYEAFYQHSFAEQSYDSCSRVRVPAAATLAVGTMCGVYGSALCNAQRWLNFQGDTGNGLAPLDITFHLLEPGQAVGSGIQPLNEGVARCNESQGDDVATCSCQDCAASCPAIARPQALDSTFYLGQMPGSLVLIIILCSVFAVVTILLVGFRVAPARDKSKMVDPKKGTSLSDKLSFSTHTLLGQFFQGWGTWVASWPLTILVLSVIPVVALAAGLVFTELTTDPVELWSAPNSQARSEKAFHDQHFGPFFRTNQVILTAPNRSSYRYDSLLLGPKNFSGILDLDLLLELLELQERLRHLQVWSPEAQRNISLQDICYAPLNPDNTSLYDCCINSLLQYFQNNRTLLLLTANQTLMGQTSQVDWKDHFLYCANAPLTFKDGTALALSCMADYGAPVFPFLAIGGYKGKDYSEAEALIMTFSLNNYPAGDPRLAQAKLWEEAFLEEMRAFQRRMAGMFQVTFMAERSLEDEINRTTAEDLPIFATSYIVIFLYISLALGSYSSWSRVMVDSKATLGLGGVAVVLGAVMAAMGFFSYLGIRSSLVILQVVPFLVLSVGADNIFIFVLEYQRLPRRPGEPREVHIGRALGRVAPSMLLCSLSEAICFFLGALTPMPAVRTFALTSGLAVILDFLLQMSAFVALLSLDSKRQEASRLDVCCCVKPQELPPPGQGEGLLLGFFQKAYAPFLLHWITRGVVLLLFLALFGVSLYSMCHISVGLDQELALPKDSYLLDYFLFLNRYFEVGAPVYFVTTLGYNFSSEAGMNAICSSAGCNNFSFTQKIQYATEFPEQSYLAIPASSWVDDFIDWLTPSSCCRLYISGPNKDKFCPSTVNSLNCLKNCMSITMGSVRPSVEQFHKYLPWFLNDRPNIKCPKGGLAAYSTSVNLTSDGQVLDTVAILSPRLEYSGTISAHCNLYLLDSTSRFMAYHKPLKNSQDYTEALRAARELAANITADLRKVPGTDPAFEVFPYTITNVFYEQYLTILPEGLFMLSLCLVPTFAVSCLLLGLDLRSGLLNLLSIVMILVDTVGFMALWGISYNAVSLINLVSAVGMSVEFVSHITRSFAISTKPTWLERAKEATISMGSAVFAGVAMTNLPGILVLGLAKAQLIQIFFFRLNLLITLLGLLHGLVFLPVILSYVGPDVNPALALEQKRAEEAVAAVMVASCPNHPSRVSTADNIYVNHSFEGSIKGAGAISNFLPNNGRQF
Procedure: HEK-293 cells expressing human NPC1L1 were plated into 384-well black/clear plates (BD Biosciences, Bedford Mass.) for binding experiments the following day. Cell growth media (DMEM, 10% fetal calf serum, 1 mg/mL geneticin, 100 Units/mL penicillin) was aspirated. Cell growth media ([…]) containing 250 nM BODIPY-labeled glucuronidated ezetimibe was added to each well. Cell growth media ([…] containing the indicated concentration of compound was then added to the wells unlabeled glucuronidated ezetimibe […]) was used to determine nonspecific binding. The binding reaction was allowed to proceed for 4 h at 37° C. Subsequently the cell growth media was aspired and the cells washed once with PBS. The remaining fluorescent labeled glucuronidated ezetimibe bound to the cells was quantified using a FlexStation plate reader (Molecular Devices, Sunnyvale Calif.) to measure fluorescence intensity. Ki values were determined from competition binding curves (n=4 for each point) using Prism and Activity Base software.

T1 sequence (Q8NER1 whole entry, species assumed): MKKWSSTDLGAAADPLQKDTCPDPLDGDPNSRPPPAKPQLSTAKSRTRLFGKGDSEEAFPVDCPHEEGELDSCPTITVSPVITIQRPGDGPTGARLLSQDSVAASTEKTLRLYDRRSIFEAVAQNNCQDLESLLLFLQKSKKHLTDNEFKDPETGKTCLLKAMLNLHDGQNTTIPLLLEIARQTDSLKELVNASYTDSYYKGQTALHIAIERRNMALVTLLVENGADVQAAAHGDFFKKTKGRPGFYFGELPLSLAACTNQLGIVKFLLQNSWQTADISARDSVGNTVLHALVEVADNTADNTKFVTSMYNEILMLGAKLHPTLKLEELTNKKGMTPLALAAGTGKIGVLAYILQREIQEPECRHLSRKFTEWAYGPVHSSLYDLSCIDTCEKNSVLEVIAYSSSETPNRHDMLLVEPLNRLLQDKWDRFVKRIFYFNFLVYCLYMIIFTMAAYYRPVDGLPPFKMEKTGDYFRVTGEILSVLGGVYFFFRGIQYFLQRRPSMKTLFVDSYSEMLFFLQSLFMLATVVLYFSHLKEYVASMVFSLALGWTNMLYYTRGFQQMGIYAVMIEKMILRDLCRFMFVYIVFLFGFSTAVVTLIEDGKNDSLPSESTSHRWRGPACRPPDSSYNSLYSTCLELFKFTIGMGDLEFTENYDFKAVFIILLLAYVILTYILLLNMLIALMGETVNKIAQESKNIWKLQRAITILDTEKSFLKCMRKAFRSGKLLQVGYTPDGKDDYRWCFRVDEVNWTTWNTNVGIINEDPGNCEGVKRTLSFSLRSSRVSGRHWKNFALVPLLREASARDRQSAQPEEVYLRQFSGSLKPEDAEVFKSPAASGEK
T2 sequence (O95180 whole entry): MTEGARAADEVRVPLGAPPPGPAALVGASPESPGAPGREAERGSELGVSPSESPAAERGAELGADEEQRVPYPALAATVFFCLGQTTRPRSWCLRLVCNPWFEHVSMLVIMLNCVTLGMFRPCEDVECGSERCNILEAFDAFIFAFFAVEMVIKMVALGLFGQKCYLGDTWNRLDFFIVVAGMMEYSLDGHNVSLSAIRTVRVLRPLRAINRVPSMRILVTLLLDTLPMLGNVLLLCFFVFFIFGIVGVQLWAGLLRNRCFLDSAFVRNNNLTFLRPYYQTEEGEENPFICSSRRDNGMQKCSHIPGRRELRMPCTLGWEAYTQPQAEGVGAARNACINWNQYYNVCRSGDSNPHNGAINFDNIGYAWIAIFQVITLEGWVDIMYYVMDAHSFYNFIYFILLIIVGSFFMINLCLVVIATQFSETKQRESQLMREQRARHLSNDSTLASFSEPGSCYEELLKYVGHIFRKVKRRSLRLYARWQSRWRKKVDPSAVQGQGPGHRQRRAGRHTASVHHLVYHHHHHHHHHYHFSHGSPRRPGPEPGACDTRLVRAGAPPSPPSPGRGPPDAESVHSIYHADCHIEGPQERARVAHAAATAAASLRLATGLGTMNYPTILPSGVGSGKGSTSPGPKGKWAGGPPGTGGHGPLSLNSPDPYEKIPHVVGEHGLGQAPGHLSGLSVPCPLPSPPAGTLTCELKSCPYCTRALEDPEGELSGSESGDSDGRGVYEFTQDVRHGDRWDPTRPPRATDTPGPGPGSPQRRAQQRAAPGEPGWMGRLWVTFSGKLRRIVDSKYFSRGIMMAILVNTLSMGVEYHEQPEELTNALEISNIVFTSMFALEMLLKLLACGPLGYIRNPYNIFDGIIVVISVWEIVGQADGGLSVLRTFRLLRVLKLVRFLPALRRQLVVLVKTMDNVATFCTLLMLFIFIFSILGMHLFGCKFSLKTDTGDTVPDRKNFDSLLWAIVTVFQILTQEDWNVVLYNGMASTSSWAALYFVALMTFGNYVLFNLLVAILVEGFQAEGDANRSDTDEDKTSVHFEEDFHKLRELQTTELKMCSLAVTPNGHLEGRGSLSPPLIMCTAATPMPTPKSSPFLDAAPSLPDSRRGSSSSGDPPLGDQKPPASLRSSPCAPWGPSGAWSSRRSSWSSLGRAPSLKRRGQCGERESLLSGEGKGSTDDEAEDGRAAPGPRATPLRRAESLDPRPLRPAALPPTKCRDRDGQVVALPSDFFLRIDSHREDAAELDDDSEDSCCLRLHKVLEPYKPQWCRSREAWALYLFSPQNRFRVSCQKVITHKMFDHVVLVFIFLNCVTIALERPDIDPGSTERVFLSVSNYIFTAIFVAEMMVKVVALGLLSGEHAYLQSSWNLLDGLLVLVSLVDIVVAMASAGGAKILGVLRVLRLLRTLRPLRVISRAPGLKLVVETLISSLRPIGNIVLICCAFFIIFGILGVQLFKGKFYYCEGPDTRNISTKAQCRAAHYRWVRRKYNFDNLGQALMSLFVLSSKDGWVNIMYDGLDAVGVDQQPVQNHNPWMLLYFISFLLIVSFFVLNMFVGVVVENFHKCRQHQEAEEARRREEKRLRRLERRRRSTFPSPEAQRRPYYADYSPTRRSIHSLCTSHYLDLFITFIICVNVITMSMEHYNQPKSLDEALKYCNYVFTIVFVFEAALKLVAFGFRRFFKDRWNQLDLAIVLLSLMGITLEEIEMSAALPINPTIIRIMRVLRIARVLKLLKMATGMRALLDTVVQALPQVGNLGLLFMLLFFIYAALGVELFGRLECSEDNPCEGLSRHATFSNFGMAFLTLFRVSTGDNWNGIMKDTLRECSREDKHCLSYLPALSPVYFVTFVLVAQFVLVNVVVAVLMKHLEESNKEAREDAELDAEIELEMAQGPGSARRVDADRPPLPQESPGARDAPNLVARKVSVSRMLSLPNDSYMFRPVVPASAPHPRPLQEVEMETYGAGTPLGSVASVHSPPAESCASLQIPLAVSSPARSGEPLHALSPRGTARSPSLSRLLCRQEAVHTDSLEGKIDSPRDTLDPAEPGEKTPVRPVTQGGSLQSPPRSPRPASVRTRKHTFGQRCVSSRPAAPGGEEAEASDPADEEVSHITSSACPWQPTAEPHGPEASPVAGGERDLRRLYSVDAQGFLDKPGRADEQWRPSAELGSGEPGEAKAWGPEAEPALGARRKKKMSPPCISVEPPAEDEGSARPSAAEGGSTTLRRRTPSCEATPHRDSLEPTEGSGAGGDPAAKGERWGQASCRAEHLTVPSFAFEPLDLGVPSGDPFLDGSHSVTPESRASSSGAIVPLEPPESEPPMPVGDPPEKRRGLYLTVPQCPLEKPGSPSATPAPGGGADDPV

Structure (SMILES): CC(C)c1ccc(NC(=O)N2CCC3(CC2)C(=O)N(c2cncnc2)C3c2ccccc2)cc1 (centres unmarked)
IC50 (TRPV1 [1]): 240 nM
IC50 (TRPV1 [2]): 155 nM

Structure (SMILES): O=C(Nc1ccc(C(F)(F)F)cc1)N1CCC2(CC1)C(=O)N(c1ccccc1)C2c1ccccn1 (centres unmarked)
IC50 (TRPV1 [1]): 33 nM
IC50 (TRPV1 [2]): 33 nM

Structure (SMILES): CC(C)c1ccc(NC(=O)N2CCC3(CC2)C(=O)N(c2ccccc2)C3c2ccccc2)cc1 (centres unmarked) [drawing 427]
IC50 (TRPV1 [1]): 138 nM
IC50 (TRPV1 [2]): 99 nM

Structure (SMILES): O=C(Nc1cc(F)cc(F)c1)N1CCC2(CC1)C(=O)N(c1ccc(F)cc1)C2c1ccc(Cl)cc1 (centres unmarked)
IC50 (human Cav3.2): 504 nM

Structure (SMILES): CC(C)N1C(=O)C2(CCN(C(=O)Nc3ccc(Cl)cc3)CC2)C1c1ccc(Cl)cc1 (centres unmarked)
IC50 (human Cav3.2): 423 nM

Structure (SMILES): COc1ccc(Cl)cc1NC(=O)N1CCC2(CC1)C(=O)N(c1ccccc1)C2c1ccccc1 (centres unmarked)
Ki (human NPC1L1): 6360 nM

Structure (SMILES): O=C(Nc1ccc(F)c(F)c1)N1CCC2(CC1)C(=O)N(c1ccc(F)cc1)C2c1ccc(Cl)cc1 (centres unmarked)
IC50 (human Cav3.2): 293 nM

Structure (SMILES): CC(C)N1C(=O)C2(CCN(C(=O)Nc3ccc(F)c(F)c3)CC2)C1c1ccc(Cl)cc1 (centres unmarked)
IC50 (human Cav3.2): 304 nM

Structure (SMILES): O=C(Nc1ccc(F)c(F)c1)N1CCC2(CC1)C(=O)N(c1ccc(F)cc1)C2c1ccccn1 (centres unmarked)
IC50 (human Cav3.2): 490 nM

Structure (SMILES): CC(C)N1C(=O)C2(CCN(C(=O)Nc3cc(Cl)cc(Cl)c3)CC2)C1c1ccc(Cl)cc1 (centres unmarked)
IC50 (human Cav3.2): 212 nM

Results, then the molecule that gave them:

IC50 (TRPV1 [1]): 81 nM
IC50 (TRPV1 [2]): 43 nM
Structure (SMILES): CC(C)c1ccc(NC(=O)N2CCC3(CC2)C(=O)N(c2ccccc2)C3c2ccccc2)cc1 (centres unmarked) [drawing 426]

IC50 (human Cav3.2): 117 nM
Structure (SMILES): O=C(Nc1ccc(F)c(F)c1)N1CCC2(CC1)C(=O)N(c1cccc(Cl)c1)C2c1ccccn1 (centres unmarked)

Ki (human NPC1L1): 8130 nM
Structure (SMILES): O=C(Nc1ccccc1C(F)(F)F)N1CCC2(CC1)C(=O)N(c1ccccc1)C2c1ccccc1 (centres unmarked)

IC50 (human Cav3.2): 192 nM
Structure (SMILES): Cc1c(Cl)cccc1NC(=O)N1CCC2(CC1)C(=O)N(c1ccccc1)C2c1ccccc1 (centres unmarked) [drawing 414]

IC50 (TRPV1 [1]): 171 nM
Structure (SMILES): O=C(Nc1ccc(C(F)(F)F)cc1)N1CCC2(CC1)C(=O)N(c1ccccc1)C2c1ccccc1 (centres unmarked)

Ki (human NPC1L1): 8190 nM
Structure (SMILES): Cc1cccc(C)c1NC(=O)N1CCC2(CC1)C(=O)N(c1ccccc1)C2c1ccccc1 (centres unmarked)

IC50 (human Cav3.2): 359 nM
Structure (SMILES): O=C(Nc1ccc(F)c(F)c1)N1CCC2(CC1)C(=O)N(c1ccccc1)C2c1ccc(Cl)cc1 (centres unmarked)

Ki (human NPC1L1): 2490 nM
Structure (SMILES): O=C(Nc1cccc2ccccc12)N1CCC2(CC1)C(=O)N(c1ccccc1)C2c1ccccc1 (centres unmarked)

IC50 (human Cav3.2): 240 nM
Structure (SMILES): O=C(Nc1ccccc1)N1CCC2(CC1)C(=O)N(c1cccc(Cl)c1)C2c1ccccn1 (centres unmarked)
